Measurements: US20220287949A1, “SAFE PARTICLES FOR THE INTRODUCTION OF USEFUL CHEMICAL AGENTS IN THE BODY WITH CONTROLLED ACTIVATION” (priority 2019, published 2022)
≈ marks a conversion by molar mass, not a printed value. Like-named read-outs stand apart in the source and are kept apart here.

Experiments:
[1] = cited from earlier work
[2] = cited from earlier work; remark: listed apart in the source
[3] = Surfactant-based extractable test (dye leaching into 1% SDS); type: physicochemical
Description: Dried particles (50 mg) were added to 3 mL of 1% sodium dodecyl sulfate to form a dispersion. The dispersion was sonicated for approximately 1 hour. The dispersion was centrifuged, and the supernatant component was withdrawn and filtered through a […] syringe filter. The absorbance spectrum of the filtrate was measured from 400-1300 nm using Shimadzu UV-3600 UV/VIS/NIR Spectrophotometer in a 1 cm cell.
The amount of the dye leached is calculated as in 2b above by applying Beer's law (Eq. 1) to give leachate concentrations. Leaching reduction is defined as the percentage of dye leached from coated particles when compared to uncoated particles of the same structure.
Portions of these particles were coated with several different shell thicknesses as described in Example lb above and tested for effectiveness in preventing dye leaching following the surfactant-based extractable test described in section Example 3b. […]

[4] = tested on: NIH 3T3 murine fibroblasts; assay: Cytotoxicity of particle components (MTS assay); type: cell-based; settings: dye solution in ethanol, NIH 3T3, 24 hours, 37° C.
Description: Dye components were each dissolved in ethanol (molecular grade ethanol from Fisher Scientific) to produce a stock solution at 1 mM (B141, M071, and Epolight™ 1117) or 100 μM (C161). For each stock solution, additional dilutions were made at 2×, 4×, 8×, 16×, 32×, 64×, and 128×, and each concentration was tested for cytotoxicity against NIH 3T3 murine fibroblasts in a cytotoxicity test. NIH-3T3 cells were plated in a 96-well culture plate at a density of 10,000 cells per well and allowed to adhere to the surface overnight. Different concentrations of the dye solution were added to the NIH 3T3 cells and incubated for 24 hours at 37° C., in a 5% CO2 incubator. Controls for the cytotoxicity experiment included “live” and “dead” (cells were killed due to osmotic pressure by adding D.I. water). “Live” cells had nothing except cell culture media containing 10% FBS added to them and were used to obtain the 100% viability data. The “dead” control was used to obtain the 0% viability data point. After 24 hours, cells were washed twice with 1× PBS containing calcium and magnesium and 100 μL of media was added at the end. To a final volume of 100 μL of media in the wells, 20 μL of PMS activated MTS reagent was added and incubated for 90 minutes. At the end of the 90 minutes, absorbance was measured at 490 nm using a plate reader (Spectramax M2e, Molecular Devices). Viability of cells was calculated using the absorbance measured for the “live” (100%) and “dead” (0%) controls and the results of % viability estimated from the absorbance for the different concentrations of the dyes were plotted in MS Excel using linear regression curve fitting algorithm to obtain the IC30. All the samples were tested in triplicate and results were averaged over the three repeats.

[5] = Laser triggered changing of color of tattoo particles in gelatin; settings: for Abs: M071 at 458 nm, IR at 1064 nm
Description: Procedure: A solution of gelatin was prepared by adding Knox gelatin (1.0 g) to cold water (12.5 g) in a 100 mL glass jar equipped with a magnetic stir bar. The gelatin was stirred 15-30 minutes and then hot water was added (70° C.) until the total weight was 50.0 g. This gelatin was then used in 2.0 gm aliquots. Colorant loaded PMMA-BMA B-805 copolymer particles with 25% VTMS shells as prepared in Example lb above (20-30 mg) were then added to the gelatin solution (2.0 g) and vortexed in a 4 dram vial. The suspension of the tattoo particles in gelatin was then sonicated for 15-30 minutes before transferring to a 5 cm plastic culture dish. The gelatin suspension was spread evenly and allowed to set. It was then covered and stored at 6° C. until used.
Laser exposure was accomplished as follows: The cover for the culture dish was removed and a 5 cm clear plastic cover was cut and fit over the gelatin to prevent splatter. The top surface was then completely irradiated at 1064 nm with a 5 mm spot using fluences ranging from 2.46 J/cm^2 to 5.09 J/cm^2 using a Nd-YAG Q-switched Lutronic laser (Lutronic Spectra™ VRM II Laser with four distinct Q-switched mode wavelengths: 1064 nm, 532 nm, 585 nm, 650 nm, nano second pulse width, and spectra peak energy: 60 MW, 120 MW and 240 MW).
After irradiating the top surface, the culture dish was covered with its lid, turned over and irradiated from the opposite side to reach any unexposed particles visible only from the bottom side.
Following the complete irradiation, the plastic cover was removed and any adhered gelatin was transferred to a 10 ml centrifuge tube. The gelatin from the culture dish was also removed and transferred to the centrifuge tube with the aid of about 5 ml of water. The culture tube was rinsed with water and any suspended gelatin transferred by pipette to the centrifuge tube. The material in the tube was sonicated until the gelatin was redissolved (20-30 minutes, about 40° C.).
The sample was centrifuged for 20 minutes and the supernatant was removed. The recovered particles were slurried again with water, centrifuged, and the wash water removed. The resultant particles were dried in vacuum at room temperature and analyzed spectroscopically for the presence of dyes as in 2b above.
The standard fluence for removal of tattoo color in designs using these particles is 3.51 J/cm^2. 5.09 J/cm^2 is the maximum fluence on the Lutronic laser using a 5 mm spot. The laser triggered color changing tests were performed on 2 μm 5:1 Y197 (12.5% Y197:6.25% IR 1117), 2 μm 7:1 M071 (6.25% M071, 8.0 wt. % IR 1117), 2 μm 5:1 PBS (2.56 wt. % B141, 0.77 wt. % C161, 0.39 wt. % M071, 1.28 wt. % Y184, 8.0 wt. % IR1117), 2 μm 5:1 Y184 (12.5 wt. % Y184, 8.0 wt. % IR 1117) particles in the entries 21-24 of Table 3 above.(the numeric ratio is weight ratio of PMMA-BMA B-805 copolymer to colorant in the particle)

[6] = Table 7B: 0.5 μm 2:1 PB4 particles with a 25% VTMS shell vs uncoated
[7] = 2 μm 5% PB5 particles, 25% VTMS shell, fluence 0 J/cm^2 (no laser)
[8] = 2 μm 5% PB5 particles, 1064 nm laser, fluence 3.51 J/cm^2
[9] = 2 μm 5% PB5 particles, 1064 nm laser, fluence 4.28 J/cm^2
[10] = 2 μm 5% PB5 particles, 1064 nm laser, fluence 5.09 J/cm^2
[11] = 2 μm 7:1 M071 particles, 25% VTMS shell, fluence 0 J/cm^2 (no laser)
[12] = 2 μm 7:1 M071 particles, 1064 nm laser, fluence 2.46 J/cm^2
[13] = 2 μm 7:1 M071 particles, 1064 nm laser, fluence 3.03 J/cm^2
[14] = 2 μm 7:1 M071 particles, 1064 nm laser, fluence 3.51 J/cm^2
[15] = 2 μm 7:1 M071 particles, 1064 nm laser, fluence 4.28 J/cm^2
[16] = 2 μm 7:1 M071 particles, 1064 nm laser, fluence 5.09 J/cm^2

Compound: O=S(=O)(O)CCCN1CCN(CCO)CC1 [HEPPS, 3-[4-(2-Hydroxyethyl)piperazin-1-yl]propane-1-sulfonic acid]
- pKa at 20° C. [1]: 8.1
- Solubility in water at 0° C. [2]: Large

Compound: 9-[2-[[[(1,1-dimethylethoxy)carbonyl]methylamino]sulfonyl]phenyl]-3,6-diphenoxy-xanthylium [Y161]
- Leachate concentration ([3]; Table 7B: 0.5 μm 2:1 PB4 particles with a 25% VTMS shell): 1.2 µM
- Leaching reduced to [3, 6]: 1.4%
- Reduction Factor [3, 6]: 72.6
- Leachate concentration ([3]; Table 7B: 0.5 μm 2:1 PB4 particles, uncoated particle): 87.1 µM

Compound: CC(C)(CO)NCCCCS(=O)(=O)O [AMPB]
- pKa at 20° C. [1]: 8.8

Compound: O=S(=O)(O)CC(O)CN1CCOCC1 (stereo not shown) [MOPSO, 2-hydroxy-3-morpholin-4-ylpropane-1-sulfonic acid]
- Solubility in water at 0° C. [2]: 750 mM (≈ 169 mg/mL)

Compound: NC(=O)CN(CC(=O)O)CC(=O)O [ADA, 2-[(2-amino-2-oxoethyl)-(carboxymethyl)amino]acetic acid]
- pKa at 20° C. [1]: 6.62

Compound: NCC(N)=O [Glycinamide]
- pKa at 20° C. [1]: 8.2
- Solubility in water at 0° C. ([2]; (as HCl)): 6400 mM (≈ 474 mg/mL)

Compound: O=S(=O)(O)CCN1CCN(CCS(=O)(=O)O)CC1 [PIPES, piperazine-N,N′-bis(2-ethanesulfonic acid)]
- pKa at 20° C. [1]: 6.82

Compound: 6-(dibutylamino)-9-[2-[[[(1,1-dimethylethoxy)carbonyl](methylsulfonyl)amino]methyl]phenyl]-3-methyl-2-(phenylamino)-xanthylium [B141]
- IC30 (70% viability) [4]: 61.22 μM^a
- IC30 (70% viability) ([4]; listed as Black): about 61 μM

Compound: O=S(=O)(O)CCCNC1CCCCC1 [CAPS]
- pKa at 20° C. [1]: 10.4

Compound: C[N+](C)(C)CCN [Cholamine chloride]
- pKa at 20° C. [1]: 7.10
- Solubility in water at 0° C. ([2]; (as HCl)): 4200 mM

Compound: O=S(=O)(O)CC(O)CNC(CO)(CO)CO (stereo not shown) [TAPSO, 3-[[1,3-dihydroxy-2-(hydroxymethyl)propan-2-yl]amino]-2-hydroxypropane-1-sulfonic acid]
- Solubility in water at 0° C. [2]: 1000 mM (≈ 259 mg/mL)

Compound: O=S(=O)(O)CCCNC(CO)(CO)CO [TAPS]
- Solubility in water at 0° C. [2]: Large

Compound: 3,6-bis(2,3-dihydro-1H-indol-1-yl)-9-[2-[[[(1,1-dimethylethoxy)carbonyl]methylamino]sulfonyl]phenyl]-xanthylium [C161]
- IC30 (70% viability) [4]: 14.65 μM^a
- IC30 (70% viability) ([4]; listed as Cyan dye): about 14 μM

Compound: O=S(=O)(O)CC(O)CN1CCN(CCO)CC1 (stereo not shown) [HEPPSO]
- Solubility in water at 0° C. [2]: 2200 mM (≈ 590 mg/mL)

Compound: 3,6-bis[(2-chlorophenyl)methylamino]-9-[2-[[[(1,1-dimethylethoxy)carbonyl]methylamino]sulfonyl]phenyl]-xanthylium [M071]
- IC30 (70% viability) [4]: 63.23 μM^a
- IC30 (70% viability) ([4]; listed as Magenta): about 61 μM
- % Reduction [5, 7]: 0%
- Abs [5, 7]: 0.023
- % Reduction [5, 8]: 30%
- Abs [5, 8]: 0.016
- % Reduction [5, 9]: 30%
- Abs [5, 9]: 0.016
- % Reduction [5, 10]: 30%
- Abs [5, 10]: 0.016
- % Reduction [5, 11]: 0%
- Abs [5, 11]: 0.207
- % Reduction [5, 12]: 23%
- Abs [5, 12]: 0.159
- % Reduction [5, 13]: 30%
- Abs [5, 13]: 0.146
- % Reduction [5, 14]: 34%
- Abs [5, 14]: 0.137
- % Reduction [5, 15]: 47%
- Abs [5, 15]: 0.109
- % Reduction [5, 16]: 43%
- Abs [5, 16]: 0.119
- fluence at which the dye decay levels off ([5]; 1064 nm laser, particles in gelatin): 4.28 J/cm^2
- decay (reduction) after laser irradiation ([5]; M071 particles, 1064 nm laser, fluences 2.46 to 5.09 J/cm^2): about 50%
